Patent US20250136553A1, “ACYLSULFONAMIDE KAT6A INHIBITORS” (Olema Pharmaceuticals, Inc., priority 2023, published 2025)

biological target: human-KAT6A (MYST domain 507-778 aa) (Homo sapiens (Human), UniProt Q92794); assay: KAT6A biochemical assay (TR-FRET); settings: @ 1 μM; reported where IC50 could not be determined; read-out: Percent inhibition at specific concentration (KAT6A)
In short: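 KAT6A MYST domain preincubated with compound 30 min at 25° C, then reacted 60 min at 25° C with 200 nM biotin-H4 peptide and 600 nM acetyl-CoA (final). Europium anti-acetyl-lysine/streptavidin-APC TR-FRET read (Ex 340, Em 615/665 nm); % inhibition from 665/615 ratio, IC50 by sigmoidal fit.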

Chain of human-KAT6A (MYST domain 507-778 aa) (Q92794 507-778): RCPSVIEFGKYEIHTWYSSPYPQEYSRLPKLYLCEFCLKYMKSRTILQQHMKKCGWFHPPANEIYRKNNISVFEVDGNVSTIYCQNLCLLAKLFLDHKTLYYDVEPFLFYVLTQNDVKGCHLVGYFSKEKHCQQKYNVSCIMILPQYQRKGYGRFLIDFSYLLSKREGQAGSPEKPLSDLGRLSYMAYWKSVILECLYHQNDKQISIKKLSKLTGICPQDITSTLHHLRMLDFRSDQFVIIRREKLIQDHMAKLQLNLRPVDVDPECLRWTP

| Compound | inhibition at 1 µM [%] |
| --- | --- |
| COc1ccc(C(C)(C)C)cc1S(=O)(=O)NC(=O)c1ccc(Cn2cccn2)n(C)c1=O [Compound 267, 6-((1H-Pyrazol-1-yl)methyl)-N-((5-(tert-butyl)-2-methoxyphenyl)sulfonyl)-1-methyl-2-oxo-1,2-dihydropyridine-3-carboxamide] | 45 |
| COc1ccc(C(C)(C)C)cc1S(=O)(=O)NC(=O)c1ccc(Cn2cccn2)c(=O)n1C [Compound 278, 5-((1H-pyrazol-1-yl)methyl)-N-((5-(tert-butyl)-2-methoxyphenyl)sulfonyl)-1-methyl-6-oxo-1,6-dihydropyridine-2-carboxamide] | 25 |

same assay, conditions: TR-FRET; histone H4 peptide 200 nM, acetyl-CoA 600 nM; read-out: KAT6A IC50

| Compound | IC50 [nM] |
| --- | --- |
| COc1cccc(OC)c1S(=O)(=O)NC(=O)c1ccc(Cn2cccn2)c(OC(F)(F)F)n1 [Compound 228, 5-((1H-pyrazol-1-yl)methyl)-N-((2,6-dimethoxyphenyl)sulfonyl)-6-(trifluoromethoxy)picolinamide] | 21 |
| COc1cccc(OC)c1S(=O)(=O)NC(=O)c1ccc(Cn2cccn2)c(C2CC2)n1 [Compound 229, 5-((1H-pyrazol-1-yl)methyl)-6-cyclopropyl-N-((2,6-dimethoxyphenyl)sulfonyl)picolinamide] | 13 |
| COc1ccc(C(C)(C)O)cc1S(=O)(=O)NC(=O)c1ccc(Cn2cccn2)c(OC)n1 [Compound 230, 5-((1H-pyrazol-1-yl)methyl)-N-((5-(2-hydroxypropan-2-yl)-2-methoxyphenyl)sulfonyl)-6-methoxypicolinamide] | 11 |
| COc1cccc(OC)c1S(=O)(=O)NC(=O)c1ccc(Cn2cccn2)c(C(F)F)n1 [Compound 231, 5-((1H-pyrazol-1-yl)methyl)-6-(difluoromethyl)-N-((2,6-dimethoxyphenyl)sulfonyl)picolinamide] | 14 |
| COc1ccccc1S(=N)(=O)NC(=O)c1ccc(Cn2cccn2)c(OC)n1 (centres unmarked) [Compound 232, 5-((1H-pyrazol-1-yl)methyl)-6-methoxy-N-(2-methoxyphenylsulfonimidoyl)picolinamide] | 95 |
| COc1nc(C(=O)NS(=O)(=O)c2cccc3c2CCC3)ccc1Cn1cccn1 [Compound 233, 5-((1H-pyrazol-1-yl)methyl)-N-((2,3-dihydro-1H-inden-4-yl)sulfonyl)-6-methoxypicolinamide] | 94 |
| COc1nc(C(=O)NS(=O)(=O)c2ccc3c(c2)CCC3)ccc1Cn1cccn1 [Compound 234, 5-((1H-pyrazol-1-yl)methyl)-N-((2,3-dihydro-1H-inden-5-yl)sulfonyl)-6-methoxypicolinamide] | 42 |
| COc1cccc(OC(F)(F)F)c1S(=O)(=O)NC(=O)c1ccc(Cn2cccn2)c(OC)n1 [Compound 235, 5-((1H-pyrazol-1-yl)methyl)-6-methoxy-N-((2-methoxy-6-(trifluoromethoxy)phenyl)sulfonyl)picolinamide] | 7 |
| COc1cccc(OC)c1S(=O)(=O)NC(=O)c1ccc(Cn2cccn2)c(C(F)(F)F)n1 [Compound 236, 5-((1H-pyrazol-1-yl)methyl)-N-((2,6-dimethoxyphenyl)sulfonyl)-6-(trifluoromethyl)picolinamide] | 4 |
| COc1nc(C(=O)NS(=O)(=O)c2cccc(C(C)(C)O)c2)ccc1Cn1cccn1 [Compound 237, 5-((1H-pyrazol-1-yl)methyl)-N-((3-(2-hydroxypropan-2-yl)phenyl)sulfonyl)-6-methoxypicolinamide] | 44 |
| COc1cc(OC)c(S(=O)(=O)NC(=O)c2ccc(Cn3cccn3)c(OC)n2)cc1Cl [Compound 238, 5-((1H-pyrazol-1-yl)methyl)-N-((5-chloro-2,4-dimethoxyphenyl)sulfonyl)-6-methoxypicolinamide] | 37 |
| CCC(C)(O)c1ccc(OC)c(S(=O)(=O)NC(=O)c2ccc(Cn3cccn3)c(OC)n2)c1 (centres unmarked) [Compound 239, 5-((1H-pyrazol-1-yl)methyl)-N-((5-(2-hydroxybutan-2-yl)-2-methoxyphenyl)sulfonyl)-6-methoxypicolinamide] | 12 |
| COc1ccc(C(C)(O)C2CC2)cc1S(=O)(=O)NC(=O)c1ccc(Cn2cccn2)c(OC)n1 (centres unmarked) [Compound 240, 5-((1H-pyrazol-1-yl)methyl)-N-((5-(1-cyclopropyl-1-hydroxyethyl)-2-methoxyphenyl)sulfonyl)-6-methoxypicolinamide] | 11 |
| COc1ccc(Cl)c(OC)c1S(=O)(=O)NC(=O)c1ccc(Cn2cccn2)c(OC)n1 [Compound 241, 5-((1H-pyrazol-1-yl)methyl)-N-((3-chloro-2,6-dimethoxyphenyl)sulfonyl)-6-methoxypicolinamide] | 10 |
| COc1cc(OC)c(S(=O)(=O)NC(=O)c2ccc(Cn3cccn3)c(OC)n2)cc1Br [Compound 242, 5-((1H-pyrazol-1-yl)methyl)-N-((5-bromo-2,4-dimethoxyphenyl)sulfonyl)-6-methoxypicolinamide] | 10 |
| COc1cccc(OC)c1S(=N)(=O)NC(=O)c1ccc(Cn2cccn2)c(OC)n1 (centres unmarked) [Compound 243, 5-((1H-pyrazol-1-yl)methyl)-N-(2,6-dimethoxyphenylsulfonimidoyl)-6-methoxypicolinamide] | 23 |
| COc1cc(OC)c(S(=O)(=O)NC(=O)c2ccc(Cn3cccn3)c(OC)n2)cc1F [Compound 244, 5-((1H-pyrazol-1-yl)methyl)-N-((5-fluoro-2,4-dimethoxyphenyl)sulfonyl)-6-methoxypicolinamide] | 14 |

| Compound | IC50 [nM] |
| --- | --- |
| COc1cccc(OCC2CC2)c1S(=O)(=O)NC(=O)c1ccc(Cn2cccn2)c(OC)n1 [Compound 245, 5-((1H-pyrazol-1-yl)methyl)-N-((2-(cyclopropylmethoxy)-6-methoxyphenyl)sulfonyl)-6-methoxypicolinamide] | 12 |
| COc1cc(OC)c(S(=O)(=O)NC(=O)c2ccc(Cn3cccn3)c(OC)n2)c2c1CCO2 [Compound 253, 5-((1H-pyrazol-1-yl)methyl)-N-((4,6-dimethoxy-2,3-dihydrobenzofuran-7-yl)sulfonyl)-6-methoxypicolinamide] | 9 |
| COc1cccc(OC2CCC2)c1S(=N)(=O)NC(=O)c1ccc(Cn2cccn2)c(OC)n1 (centres unmarked) [Compound 261, 5-((1H-pyrazol-1-yl)methyl)-N-(2-cyclobutoxy-6-methoxyphenylsulfonimidoyl)-6-methoxypicolinamide] | 38 |
| COc1ccc(S(=N)(=O)NC(=O)c2ccc(Cn3cccn3)c(OC)n2)c(OC)c1 (centres unmarked) [Compound 262, 5-((1H-pyrazol-1-yl)methyl)-N-(2,4-dimethoxyphenylsulfonimidoyl)-6-methoxypicolinamide] | 115 |
| COc1cc(OC)c(S(=N)(=O)NC(=O)c2ccc(Cn3cccn3)c(OC)n2)c(OC)c1 (centres unmarked) [Compound 263, 5-((1H-pyrazol-1-yl)methyl)-6-methoxy-N-(2,4,6-trimethoxyphenylsulfonimidoyl)picolinamide] | 36 |
| CCc1nc(C(=O)NS(=O)(=O)c2c(OC)cccc2OC)ccc1Cn1cccn1 [Compound 265, 5-((1H-Pyrazol-1-yl)methyl)-N-((2,6-dimethoxyphenyl)sulfonyl)-6-ethylpicolinamide] | 14 |
| COc1ccc(C(C)(C)CO)cc1S(=O)(=O)NC(=O)c1ccc(Cn2cccn2)c(OC)n1 [Compound 266, 5-((1H-Pyrazol-1-yl)methyl)-N-((5-(1-hydroxy-2-methylpropan-2-yl)-2-methoxyphenyl)sulfonyl)-6-methoxypicolinamide] | 10 |
| CCc1c(OC)cc(OC)c(S(=O)(=O)NC(=O)c2ccc(Cn3cccn3)c(OC)n2)c1OC [Compound 268, 5-((1H-Pyrazol-1-yl)methyl)-N-((3-ethyl-2,4,6-trimethoxyphenyl)sulfonyl)-6-methoxypicolinamide] | 16 |
| COc1cc(C#Cc2cccnc2)cc(OC)c1S(=O)(=O)NC(=O)c1ccc(Cn2cccn2)c(OC)n1 [Compound 269, 5-((1H-Pyrazol-1-yl)methyl)-N-((2,6-dimethoxy-4-(pyridin-3-ylethynyl)phenyl)sulfonyl)-6-methoxypicolinamide] | 12 |
| [2H]C([2H])([2H])Oc1cc(OC([2H])([2H])[2H])c(S(=O)(=O)NC(=O)c2ccc(Cn3cccn3)c(OC)n2)c(OC([2H])([2H])[2H])c1 [Compound 270, 5-((1H-pyrazol-1-yl)methyl)-6-methoxy-N-((2,4,6-tris(methoxy-d3)phenyl)sulfonyl)picolinamide] | 6 |
| CCc1ccc(OC)c(S(=O)(=O)NC(=O)c2ncc(Cn3cccn3)c(OC)n2)c1 [Compound 271, 5-((1H-Pyrazol-1-yl)methyl)-N-((5-ethyl-2-methoxyphenyl)sulfonyl)-4-methoxypyrimidine-2-carboxamide] | 37 |
| COc1cc(OC)c(S(=O)(=O)NC(=O)c2ncc(Cn3cccn3)c(OC)n2)c(OC)c1 [Compound 272, 5-((1H-pyrazol-1-yl)methyl)-4-methoxy-N-((2,4,6-trimethoxyphenyl)sulfonyl)pyrimidine-2-carboxamide] | 33 |
| COc1ccc(C2CC2)cc1S(=O)(=O)NC(=O)c1ncc(Cn2cccn2)c(OC)n1 [Compound 273, 5-((1H-pyrazol-1-yl)methyl)-N-((5-cyclopropyl-2-methoxyphenyl)sulfonyl)-4-methoxypyrimidine-2-carboxamide] | 34 |
| COc1cccc(OC)c1S(=O)(=O)NC(=O)c1ncc(Cn2cccn2)c(OC)n1 [Compound 274, 5-((1H-pyrazol-1-yl)methyl)-N-((2,6-dimethoxyphenyl)sulfonyl)-4-methoxypyrimidine-2-carboxamide] | 30 |
| COc1cc(C)cc(OC)c1S(=O)(=O)NC(=O)c1ccc(Cn2cccn2)c(OC)n1 [Compound 275, 5-((1H-pyrazol-1-yl)methyl)-N-((2,6-dimethoxy-4-methylphenyl)sulfonyl)-6-methoxypicolinamide] | 10 |
| COc1cccc(OC2CC2)c1S(=O)(=O)NC(=O)c1ccc(Cn2cccn2)c(OC)n1 [Compound 279, 5-((1H-pyrazol-1-yl)methyl)-N-((2-cyclopropoxy-6-methoxyphenyl)sulfonyl)-6-methoxypicolinamide] | 14 |
